Earlier results as cited in PubChem BioAssay AID1259409 (Chemical Carcinogenesis Research Information System (CCRIS), 2018).

Test system: rodent chemically induced tumor inhibition, incidence and multiplicity
Test: CCRIS tumor inhibitor studies
Conditions: Promoter: NONE USED

For CC/C(=C(\c1ccccc1)c1ccc(OCCN(C)C)cc1)c1ccccc1, the “tumour outcome (control, treated, inhibition, significance)” value (Carcinogen: N-METHYL-N-NITROSOUREA, 684-93-5, Dose [Inhibitor]: 50 UG DISSOLVED IN SMALL VOLUME OF ETHANOL AND DILUTED IN 1% GELATIN-0.9% NACL TO INJECTION VOLUME OF 0.2 ML, DAILY STAR, Route [Inhibitor]: INJECTION, Species: RAT, Strain/Sex: SPRAGUE-DAWLEY/FEMALE, Target Tissue: Type of Lesion: MAMMARY GLAND: TUMOR, Dose [Carcinogen]: 5 MG/100 G BW AT 0, 4 AND 8 WK OF STUDY STARTING SIMULTANEOUSLY WITH AGENT TREATMENT) is listed as 86%, 9%, 90%, not calculated, the “tumour outcome (control, treated, inhibition, significance)” value (Carcinogen: N-NITROSO-N-METHYLUREA, 684-93-5, Dose [Inhibitor]: 0, 0.5 MG/KG OF DIET FOR 3 MO BEGINNING 1 WK POST CARCINOGEN DOSE (STUDY DURATION: 100 D), Route [Inhibitor]: ORAL, Species: RAT, Strain/Sex: SPRAGUE-DAWLEY/FEMALE, Target Tissue: Type of Lesion: MAMMARY GLAND: TUMOR, Dose [Carcinogen]: 50 MG/KG BW ONCE) is listed as 100%, 75%, 25%, p=0.03 and the “tumour outcome (control, treated, inhibition, significance)” value (Carcinogen: N-NITROSO-N-METHYLUREA, 684-93-5, Dose [Inhibitor]: 0, 0.5 MG/KG OF DIET FOR 4.5 MO BEGINNING 1 WK POST CARCINOGEN DOSE (STUDY DURATION: 100 D), Route [Inhibitor]: ORAL, Species: RAT, Strain/Sex: SPRAGUE-DAWLEY/FEMALE, Target Tissue: Type of Lesion: MAMMARY GLAND: TUMOR, Dose [Carcinogen]: 50 MG/KG BW ONCE) is listed as 96%, 50%, 48%, p=0.003. For the same compound, the “tumour outcome (control, treated, inhibition, significance)” value (Carcinogen: N-NITROSO-N-METHYLUREA, 684-93-5, Dose [Inhibitor]: 0, 1 MG/KG OF DIET FOR 4.5 MO BEGINNING 1 WK POST CARCINOGEN DOSE (STUDY DURATION: 100 D), Route [Inhibitor]: ORAL, Species: RAT, Strain/Sex: SPRAGUE-DAWLEY/FEMALE, Target Tissue: Type of Lesion: MAMMARY GLAND: TUMOR, Dose [Carcinogen]: 50 MG/KG BW ONCE) was 96%, 42%, 56%, p<0.001, the “tumour outcome (control, treated, inhibition, significance)” value (Carcinogen: NONE USED, Dose [Inhibitor]: 0, 125 UG/D FROM SUSTAINED RELEASE SILASTIC CAPSULES ADMINISTERED TO OVARIECTOMIZED MICE FOR 17 MO BEGINNING AT 3 MO OF, Route [Inhibitor]: IMPLANT, Species: MOUSE, Strain/Sex: C3H/OUJ/FEMALE, Target Tissue: Type of Lesion: MAMMARY GLAND: TUMOR) was 50%, 22%, 56%, p<0.003 and the “tumour outcome (control, treated, inhibition, significance)” value (Carcinogen: NONE USED, Dose [Inhibitor]: 0, 125 UG/D FROM SUSTAINED RELEASE SILASTIC CAPSULES FOR 3 MO BEGINNING AT 4 MO OF AGE (STUDY DURATION: 18 MO), Route [Inhibitor]: IMPLANT, Species: MOUSE, Strain/Sex: C3H/OUJ/FEMALE, Target Tissue: Type of Lesion: MAMMARY GLAND: TUMOR) was 100%, 20%, 80%, p<0.001. For the same compound, the “tumour outcome (control, treated, inhibition, significance)” value (Carcinogen: NONE USED, Dose [Inhibitor]: 0, 125 UG/D FROM SUSTAINED RELEASE SILASTIC CAPSULES FOR 6 MO BEGINNING AT 3 MO OF AGE (STUDY DURATION: 18 MO), Route [Inhibitor]: IMPLANT, Species: MOUSE, Strain/Sex: C3H/OUJ/FEMALE, Target Tissue: Type of Lesion: MAMMARY GLAND: TUMOR) was 100%, 26%, 74%, p<0.001, the “tumour outcome (control, treated, inhibition, significance)” value (Carcinogen: NONE USED, Dose [Inhibitor]: 0, 125 UG/D FROM SUSTAINED RELEASE SILASTIC CAPSULES FOR 12 MO BEGINNING AT 3 MO OF AGE (STUDY DURATION: 18 MO), Route [Inhibitor]: IMPLANT, Species: MOUSE, Strain/Sex: C3H/OUJ/FEMALE, Target Tissue: Type of Lesion: MAMMARY GLAND: TUMOR) was 100%, 24%, 76%, p<0.001 and the “tumour outcome (control, treated, inhibition, significance)” value (Carcinogen: NONE USED, Dose [Inhibitor]: 0, 125 UG/D FROM SUSTAINED RELEASE SILASTIC CAPSULES FOR 17 MO BEGINNING AT 3 MO OF AGE (STUDY DURATION: 27 MO), Route [Inhibitor]: IMPLANT, Species: MOUSE, Strain/Sex: C3H/OUJ/FEMALE, Target Tissue: Type of Lesion: MAMMARY GLAND: TUMOR) was 100%, 20%, 80%, p<0.003. The “tumour outcome (control, treated, inhibition, significance)” value (Carcinogen: PROGESTERONE, 57-83-0, Dose [Inhibitor]: 0, 125 UG/D FROM SUSTAINED RELEASE SILASTIC CAPSULES FOR 3 MO PRIOR TO CARCINOGEN TREATMENT (STUDY DURATION: 18 MO), Route [Inhibitor]: IMPLANT, Species: MOUSE, Strain/Sex: C3H/OUJ/FEMALE, Target Tissue: Type of Lesion: MAMMARY GLAND: TUMOR, Dose [Carcinogen]: 20 MG ADMINISTERED IN SUSTAINED RELEASE SILASTIC CAPSULES FOR A ONE MO DURATION EVERY OTHER MO) was 100%, 92%, 8%, not significant, the “tumour outcome (control, treated, inhibition, significance)” value (Carcinogen: PROGESTERONE, 57-83-0, Dose [Inhibitor]: 0, 125 UG/D FROM SUSTAINED RELEASE SILASTIC CAPSULES FOR 6 MO PRIOR TO CARCINOGEN TREATMENT (STUDY DURATION: 18 MO), Route [Inhibitor]: IMPLANT, Species: MOUSE, Strain/Sex: C3H/OUJ/FEMALE, Target Tissue: Type of Lesion: MAMMARY GLAND: TUMOR, Dose [Carcinogen]: 20 MG ADMINISTERED IN SUSTAINED RELEASE SILASTIC CAPSULES FOR A ONE MO DURATION EVERY OTHER MO) was 100%, 52%, 48%, p<0.002 and the “tumour outcome (control, treated, inhibition, significance)” value (Carcinogen: PROGESTERONE, 57-83-0, Dose [Inhibitor]: 0, 125 UG/D FROM SUSTAINED RELEASE SILASTIC CAPSULES FOR 12 MO BEGINNING AT 3 MO OF AGE (STUDY DURATION: 21 MO), Route [Inhibitor]: IMPLANT, Species: MOUSE, Strain/Sex: C3H/OUJ/FEMALE, Target Tissue: Type of Lesion: MAMMARY GLAND: TUMOR, Dose [Carcinogen]: 20 MG ADMINISTERED IN SUSTAINED RELEASE SILASTIC CAPSULES GIVEN FOR A ONE MONTH DURATION EVERY OTHER MO BEGINNING AT 3 M) was 100%, 88%, 12%, not significant. For the same compound, the “tumour outcome (control, treated, inhibition, significance)” value (Carcinogen: SUBCUTANEOUS IMPLANT, Dose [Inhibitor]: ZERANOL, 26538-44-3, Route [Inhibitor]: 0, 5 MG 2/WK TO DAY 32 THEN 1/WK TO DAY 202 (STUDY DURATION: 202 D), Species: HAMSTER, Strain/Sex: SUBCUTANEOUS, Target Tissue: Type of Lesion: LIVER: HEPATOCELLULAR ADENOMA, Dose [Carcinogen]: NONE USED) was 56%, 0%, 100%, not calculated, the “tumour outcome (control, treated, inhibition, significance)” value (Carcinogen: ZERANOL, 26538-44-3, Dose [Inhibitor]: 0, 5 MG 2/WK TO DAY 32 THEN 1/WK TO DAY 202 (STUDY DURATION: 202 D), Route [Inhibitor]: SUBCUTANEOUS, Species: HAMSTER, Strain/Sex: ARMENIAN/FEMALE, Target Tissue: Type of Lesion: LIVER: HEPATOCELLULAR ADENOMA, Dose [Carcinogen]: 36 MG IMPLANTED ON DAYS 0 AND 94) was 57%, 0%, 100%, not calculated and the “tumour outcome (control, treated, inhibition, significance)” value (Carcinogen: ZERANOL, 26538-44-3, Dose [Inhibitor]: 0, 5 MG 2/WK TO DAY 32 THEN 1/WK TO DAY 202 (STUDY DURATION: 202 D), Route [Inhibitor]: SUBCUTANEOUS, Species: HAMSTER, Strain/Sex: ARMENIAN/FEMALE, Target Tissue: Type of Lesion: LIVER: HEPATOCELLULAR CARCINOMA, Dose [Carcinogen]: 36 MG IMPLANTED ON DAYS 0 AND 94) was 6/7 (86%), 0/4 (0%), 100%, not calculated. For the same compound, the “tumour outcome (control, treated, inhibition, significance)” value (Carcinogen: ZERANOL, 26538-44-3, Dose [Inhibitor]: 0, 5 MG 2/WK TO DAY 32 THEN 1/WK TO DAY 202 (STUDY DURATION: 202 D), Route [Inhibitor]: SUBCUTANEOUS, Species: HAMSTER, Strain/Sex: ARMENIAN/MALE, Target Tissue: Type of Lesion: LIVER: HEPATOCELLULAR CARCINOMA, Dose [Carcinogen]: 36 MG IMPLANTED ON DAYS 0 AND 94) was 3/9 (33%), 0/4 (0%), 100%, not calculated.
